From US20030175810A1, “Assay method and system for identification of P2Y receptor agonists and antagonists” (priority 2000, published 2003)
Values belong to the molecule of their own block, whether it stands above or below them.

How the values were obtained:
P2Y1 receptor = target: T1, P2Y1 receptor (Homo sapiens, UniProt P47900); test: steady state GTP hydrolysis by purified P2Y1-R reconstituted with Gα11 and Gβ1γ2 in proteoliposomes; type: biochemical
T1 construct: hexahistidine; made in house; host or cells: baculovirus / Sf9 insect cells are named only as a preferred embodiment
T1 sequence (P47900 whole entry): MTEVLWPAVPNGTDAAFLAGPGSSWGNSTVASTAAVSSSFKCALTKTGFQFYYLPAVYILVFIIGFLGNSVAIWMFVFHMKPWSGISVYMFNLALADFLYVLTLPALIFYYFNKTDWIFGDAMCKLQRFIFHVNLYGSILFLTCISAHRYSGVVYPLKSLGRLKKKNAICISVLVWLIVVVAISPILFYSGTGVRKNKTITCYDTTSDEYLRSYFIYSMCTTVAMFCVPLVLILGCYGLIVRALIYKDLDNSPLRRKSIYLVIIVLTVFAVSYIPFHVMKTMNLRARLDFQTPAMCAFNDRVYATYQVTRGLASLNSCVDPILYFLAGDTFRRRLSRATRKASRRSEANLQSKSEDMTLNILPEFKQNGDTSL
Procedure: Purified human P2Y1-R, Gα11, and Gβ1y2 were reconstituted in phospholipid vesicles.
In a glass tube, the following lipid solutions, which are made by solubilizing the lipids in chloroform, are combined: 11 μl PE (10 mg/ml), 7 μl PS (10 mg/ml), 4 μl cholesteryl hemisuccinate (2 mM). The mixture is dried under a stream of N2 or argon to prevent oxidation. The lipids are then dissolved in a buffer containing deoxycholate at 0.4% and sonicated to ensure complete solubilization. Proteins are added sequentially: 50 pmol of the appropriate G protein α subunit, 150 pmol Gβγ and 15 pmol of P2Y receptor. The mixture is passed over a sizing column to isolate the vesicles from the single components and the detergent. Isolated vesicles can then used for the GTP hydrolysis assays for which they can be diluted depending on their quality.
(§1) In a steady state embodiment of the present invention, vesicles are combined with agonists, GAP proteins γ-[^32P] labeled GTP, all in an appropriate buffer system. The assay is then incubated at between 20° C. and 30° C. for various times. P2Y receptor-promoted activity is measured as released ^32P, which is separated from [γ-^32P]GTP after the assay is halted by transfer to ice and addition of ice cold 5% slurry or activated charcoal in 20 mM phosphoric acid. See Biddlecome et al., J. Biol. Chem. 271: 7999-8007.
The P2Y1 receptor was expressed, purified and reconstituted into vesicles as described herein. GTP hydrolysis was measured by incubation of vesicles with 2 μM [γ^32P]GTP and quantitation of released [^32P]Pi.

[1] = test system: P2Y1 receptor/Gαq/β1γ2 vesicles; test: promotion of 2MeSADP-stimulated GTPase activity of P2Y1 receptor/Gαq/β1γ2 vesicles; type: biochemical; details: 1 μM 2MeSADP, FIG. 4 and 5
Procedure: Purified P2Y1-R was reconstituted with Gαq and Gβ1y2.
FIG. 5 is a line graph depicting promotion of 2MeSADP-stimulated GTP hydrolysis by phospholipase C-β1. P2Y1-R was reconstituted with Gαq and Gβ1y2.
as §1
The selectivity of the P2Y1 receptor for coupling to various G proteins, and the selectivity of RGS proteins and phospholipase C-β isoenzymes for promoting GTPase activities were studied.

- agonist versus antagonist nature at the P2Y1 receptor (P2Y1 receptor; in the absence of receptor reserve): pure antagonist
Molecule: Nc1ncnc2c1ncn2[C@@H]1O[C@H](COP(=O)(O)OP(=O)(O)OP(=O)(O)O)[C@@H](O)[C@H]1O [ATP, adenosine 5′-triphosphate]

- stimulation of GTPase activity over basal (P2Y1 receptor; agonist together with RGS4, FIG. 2A): up to 100 fold
- EC70 concentration of agonist (P2Y1 receptor; concentration used to identify antagonists): approximately 50 nM
- hydrolysis of GTP on addition of agonist (P2Y1 receptor; in the presence of RGS4, FIG. 1): marked increase
Molecule: 2-methylthioadenosine 5′-diphosphate [2MeSADP]

B1: Phospholipase C-β1: phospholipase C-β isoenzyme stimulating GTPase activity of Gαq (protein, UniProt Q9NQ66 1-1216, looked up)
1-phosphatidylinositol …: MAGAQPGVHALQLKPVCVSDSLKKGTKFVKWDDDSTIVTPIILRTDPQGFFFYWTDQNKETELLDLSLVKDARCGRHAKAPKDPKLRELLDVGNIGRLEQRMITVVYGPDLVNISHLNLVAFQEEVAKEWTNEVFSLATNLLAQNMSRDAFLEKAYTKLKLQVTPEGRIPLKNIYRLFSADRKRVETALEACSLPSSRNDSIPQEDFTPEVYRVFLNNLCPRPEIDNIFSEFGAKSKPYLTVDQMMDFINLKQRDPRLNEILYPPLKQEQVQVLIEKYEPNNSLARKGQISVDGFMRYLSGEENGVVSPEKLDLNEDMSQPLSHYFINSSHNTYLTAGQLAGNSSVEMYRQVLLSGCRCVELDCWKGRTAEEEPVITHGFTMTTEISFKEVIEAIAECAFKTSPFPILLSFENHVDSPKQQAKMAEYCRLIFGDALLMEPLEKYPLESGVPLPSPMDLMYKILVKNKKKSHKSSEGSGKKKLSEQASNTYSDSSSMFEPSSPGAGEADTESDDDDDDDDCKKSSMDEGTAGSEAMATEEMSNLVNYIQPVKFESFEISKKRNKSFEMSSFVETKGLEQLTKSPVEFVEYNKMQLSRIYPKGTRVDSSNYMPQLFWNAGCQMVALNFQTMDLAMQINMGMYEYNGKSGYRLKPEFMRRPDKHFDPFTEGIVDGIVANTLSVKIISGQFLSDKKVGTYVEVDMFGLPVDTRRKAFKTKTSQGNAVNPVWEEEPIVFKKVVLPTLACLRIAVYEEGGKFIGHRILPVQAIRPGYHYICLRNERNQPLTLPAVFVYIEVKDYVPDTYADVIEALSNPIRYVNLMEQRAKQLAALTLEDEEEVKKEADPGETPSEAPSEARTTPAENGVNHTTTLTPKPPSQALHSQPAPGSVKAPAKTEDLIQSVLTEVEAQTIEELKQQKSFVKLQKKHYKEMKDLVKRHHKKTTDLIKEHTTKYNEIQNDYLRRRAALEKSAKKDSKKKSEPSSPDHGSSTIEQDLAALDAEMTQKLIDLKDKQQQQLLNLRQEQYYSEKYQKREHIKLLIQKLTDVAEECQNNQLKKLKEICEKEKKELKKKMDKKRQEKITEAKSKDKSQMEEEKTEMIRSYIQEVVQYIKRLEEAQSKRQEKLVEKHKEIRQQILDEKPKLQVELEQEYQDKFKRLPLEILEFVQEAMKGKISEDSNHGSAPLSLSSDPGKVNHKTPSSEELGGDIPGKEFDTPL
- promotion of GTPase activity (potency and efficacy in words) [1]: potent and efficacious stimulator
